Non-standard residues stand in square brackets, D forms with d. Residues, ends and D or L forms follow the SMILES beside them.
Tests used:
[1] = test system: patients with cirrhosis; settings: administered through the hepatic artery, cited from earlier work
[2] = test system: patients with early cirrhosis; settings: cited from earlier work
[3] = test system: adult subjects with a history of cirrhosis and portal hypertension; assay: Clinical study NCT03827200: portal pressure estimated by Hepatic Venous Pressure Gradient (HVPG); format: in vivo, human
Method: (§1) In the context of a clinical study (ClinicalTrials.gov Identifier: NCT03827200), ambrisentan was administered to 8 adult subjects with a history of cirrhosis and portal hypertension. […] A liquid formulation of ambrisentan was used, consisting of a solution of propylene glycol:ethanol (50:50 w/w) and ambrisentan at a concentration of 5 mg/mL. The solution was reconstituted prior to administration in water or propylene glycol. All subjects were treated for 14 days. Portal pressure was estimated in this study by means of the Hepatic Vein Pressure Gradient (HVPG), the current gold standard to evaluate the degree of portal hypertension in adults with cirrhosis (as described in Bosch, J., Abraldes, J. G., Berzigotti, A., & Garcia-Pagan, J. C. (2009). The clinical use of HVPG measurements in chronic liver disease. Nature Reviews Gastroenterology & Hepatology, 6(10), 573-582). HVPG was measured at baseline and prior to the first administration of ambrisentan. Post-baseline values for HVPG were obtained at 90 minutes following the administration of the first dose of ambrisentan. After 14 days of treatment, HVPG was determined at trough (prior to the last dose) and 90 minutes following the last dose of ambrisentan. Two dose groups were evaluated in this study. In the high dose group, 4 subjects were administered 50 μg ambrisentan on day 1 subcutaneously, followed by 100 μg of ambrisentan twice a day orally for 13 days, for a total daily dose of 200 μg. On day 14, subjects in the high dose group received a final dose of 50 μg ambrisentan subcutaneously. In the low dose group, 4 subjects were administered 10 μg ambrisentan on day 1 subcutaneously, followed by 14 μg of ambrisentan once a day orally for 13 days. On day 14, subjects in the low dose group received a final dose of 10 μg ambrisentan subcutaneously.
All subjects had portal hypertension as determined by HVPG at baseline (mean 19.7 mmHg, range 9-29 mmHg). […] An initial decrease in HVPG was apparent at 90 minutes post-administration in the low-dose group, and the reduction in HVPG was even larger at day 14 when compared to day 1 (Table 2).

[4] = Pharmacokinetic analysis of ambrisentan plasma concentrations in the clinical study; format: in vivo, human; settings: high dose group
Method: as §1, with “In the high dose group, 4 subjects were administered 50 μg ambrisentan on day 1 subcutaneously, followed by 100 μg of ambrisentan twice a day orally for 13 days, for a total daily dose of 200 μg. On day 14, subjects in the high dose group received a final dose of 50 μg ambrisentan subcutaneously. In the low dose group, 4 subjects were administered 10 μg ambrisentan on day 1 subcutaneously, followed by 14 μg of ambrisentan once a day orally for 13 days. On day 14, subjects in the low dose group received a final dose of 10 μg ambrisentan subcutaneously.” left out

[5] = test system: patient with portopulmonary hypertension; settings: one case of portopulmonary hypertension; cited from earlier work
[6] = test system: patients with portopulmonary hypertension; settings: cited from earlier work

CC(C)C[C@@H]1NC(=O)[C@@H](C(C)C)NC(=O)[C@@H]2CCCN2C(=O)[C@@H](CC(=O)O)NC(=O)[C@@H](Cc2c[nH]c3ccccc23)NC1=O [BQ-123] (cyclo(L[dW][dD]P[dV]))
Reduction of portal pressure as determined by HVPG ([1]; acute): 18%
Hepatic artery blood flow [1]: significant increase
Acute reduction of portal pressure as assessed by HVPG [2]: did not show any acute reduction on portal pressure

CCCC[C@@H](NC(=O)[C@@H](Cc1cn(C(=O)OC)c2ccccc12)NC(=O)[C@H](CC(C)(C)C)NC(=O)N1[C@H](C)CCC[C@@H]1C)C(=O)O [BQ-788]
Acute reduction of portal pressure as assessed by HVPG [2]: did not show any acute reduction on portal pressure

COC(c1ccccc1)(c1ccccc1)[C@H](Oc1nc(C)cc(C)n1)C(=O)O [ambrisentan]
Change in HVPG from baseline, percent change, mean ([3]; dose group 10/14 μg, N=4, Day 1, 90 m after first dose): −6.4%
Change in HVPG from baseline, percent change, mean ([3]; dose group 10/14 μg, N=4, Day 14, 90 m after last dose): −14.1%
Change in HVPG from baseline, percent change, mean ([3]; dose group 10/14 μg, N=4, Day 14, trough (0 H)): −9.2%
Change in HVPG from baseline, percent change, mean ([3]; dose group 50/200 μg, N=4, Day 1, 90 m after first dose): 4.8%
Change in HVPG from baseline, percent change, mean ([3]; dose group 50/200 μg, N=4, Day 14, 90 m after last dose): 11.7%
Change in HVPG from baseline, percent change, mean ([3]; dose group 50/200 μg, N=4, Day 14, trough (0 H)): 9.2%
Steady-state trough ambrisentan plasma concentration ([4]; 100 μg twice daily orally for 13 days): about 10 ng/mL
concentration at 2 h ([4]; human, plasma, subcutaneous, 50 μg at day 14, 2 hours post-administration): 18 ng/mL

COc1ccccc1Oc1c(NS(=O)(=O)c2ccc(C(C)(C)C)cc2)nc(-c2ncccn2)nc1OCCO [bosentan]
Portal pressure as measured by HVPG [5]: decrease
Pulmonary pressure [5]: decrease

CCCNS(=O)(=O)Nc1ncnc(OCCOc2ncc(Br)cn2)c1-c1ccc(Br)cc1 [macitentan]
6-minute walking distance [6]: no effect
Portal pressure as determined by HVPG [6]: not showing a significant difference

From patent US11883400B2, “Treatment of portal hypertension and cirrhosis” (Noorik Biopharmaceuticals AG, priority 2018, dated 2024)
